Measured values: patent US7928143B2, “Method for preventing and/or treating neurodegenerative diseases” (Ono Pharmaceutical Co., Ltd., priority 2003, dated 2011)

Legend:
Type in all cases: in vivo, human
[1] = test system: patients with cerebral infarction at the acute phase (within 24 hours after onset of the disease); assay: Clinical test Example 2: double blind placebo-controlled test, efficacy by modified Rankin Scale; conditions: 8 mg/kg/h administration group, 1 h continuous i.v. once a day for 7 days; 40 days after commencement of administration; statistically significant vs placebo (32.5%)
Protocol: (§1) As a clinical test, a double blind test was carried out using patients with cerebral infarction at the acute phase (within 24 hours after onset of the disease) under the following conditions by (2R)-2-propyloctanoic acid administration groups (6 varied doses) and a placebo administration group. • Object: 92 patients in the acute phase cerebral infarction. • Administration method and dosage: 1 hour of continuous intravenous administration once a day in each group; • (1) (2R)-2-propyloctanoic acid: 2 mg/kg/h; • (2) (2R)-2-propyloctanoic acid: 4 mg/kg/h; • (3) (2R)-2-propyloctanoic acid: 6 mg/kg/h; • (4) (2R)-2-propyloctanoic acid: 8 mg/kg/h; • (5) (2R)-2-propyloctanoic acid: 10 mg/kg/h; • (6) (2R)-2-propyloctanoic acid: 12 mg/kg/h; • (7) placebo. • Administration period: 7 days • The Number of Cases: • (1) (2R)-2-propyloctanoic acid 2 mg/kg/h administered group: 9 patients; • (2) (2R)-2-propyloctanoic acid 4 mg/kg/h administered group: 8 patients; • (3) (2R)-2-propyloctanoic acid 6 mg/kg/h administered group: 8 patients; • (4) (2R)-2-propyloctanoic acid 8 mg/kg/h administered group: 8 patients; • (5) (2R)-2-propyloctanoic acid 10 mg/kg/h administered group: 8 patients; • (6) (2R)-2-propyloctanoic acid 12 mg/kg/h administered group: 8 patients; • (7) placebo administered group: 43 patients. […]

serum S-100β = assay: Clinical test Example 2: serum S-100β content (SMART S100 ELISA Kit); conditions: administered groups (2 to 12 mg/kg/h, i.v. 7 days) in comparison with placebo group; particularly remarkable on and after 3 days; FIG. 3
Protocol: as §1

[2] = test system: patients with cerebral infarction at the acute phase (within 72 hours after onset of the disease); assay: Clinical test Example 1: safety evaluation (frequency of adverse matters and contents); conditions: i.v. 7 days, causal relation to the test drug was denied
Protocol: (§2) As a clinical test, a randomization test was carried out on patients with cerebral infarction at the acute phase (within 72 hours after onset of the disease), at two doses under the following conditions. • Object: 97 patients in the acute phase cerebral infarction. • Administration method and dosage: 1 hour of continuous intravenous administration once a day in each group; • (1) (2R)-2-propyloctanoic acid: 0.4 mg/kg/h; • (2) (2R)-2-propyloctanoic acid: 4 mg/kg/h. • Administration period: 7 days • The Number of Cases: • (1) (2R)-2-propyloctanoic acid 0.4 mg/kg/h administered group: 51 patients; • (2) (2R)-2-propyloctanoic acid 4 mg/kg/h administered group: 46 patients. Evaluation Items: Main Evaluation Items <Efficacy Evaluation Items> (1) Rankin Scale (RS)
(§3) <Safety Evaluation Item> • Frequency of adverse matters and the contents thereof (symptoms, causal relation and the like): • Analysis: Therapeutic effects by continuous intravenous administration of (2R)-2-propyloctanoic acid were evaluated based on the above main evaluation items. • Results: The results are shown below. <Efficacy Evaluation Item>

[3] = test system: patients with cerebral infarction at the acute phase (within 72 hours after onset of the disease); assay: Clinical test Example 1: randomization test at two doses, efficacy by Rankin Scale and Glasgow Outcome Scale; conditions: 4 mg/kg/h vs 0.4 mg/kg/h group, 1 h continuous i.v. once a day for 7 days, cases with JSS≦15 before administration, three months after commencement of administration
Protocol: as §2
Evaluation method: Symptoms of patients were scored by classifying them into the following grades of Table 1.
(2) Glasgow Outcome Scale (GOS)
Evaluation method: Symptoms of patients were scored by classifying them into the following grades of Table 2.
as §3

[4] = test system: patients with cerebral infarction at the acute phase (within 24 hours after onset of the disease); assay: Clinical test Example 2: safety evaluation (adverse matters and clinical test values); conditions: administration group (2 to 12 mg/kg/h, i.v. 7 days)
Protocol: As a clinical test, a double blind test was carried out using patients with cerebral infarction at the acute phase (within 24 hours after onset of the disease) under the following conditions by (2R)-2-propyloctanoic acid administration groups (6 varied doses) and a placebo administration group. • Object: 92 patients in the acute phase cerebral infarction. • Administration method and dosage: 1 hour of continuous intravenous administration once a day in each group; • (1) (2R)-2-propyloctanoic acid: 2 mg/kg/h; • (2) (2R)-2-propyloctanoic acid: 4 mg/kg/h; • (3) (2R)-2-propyloctanoic acid: 6 mg/kg/h; • (4) (2R)-2-propyloctanoic acid: 8 mg/kg/h; • (5) (2R)-2-propyloctanoic acid: 10 mg/kg/h; • (6) (2R)-2-propyloctanoic acid: 12 mg/kg/h; • (7) placebo. • Administration period: 7 days • The Number of Cases: • (1) (2R)-2-propyloctanoic acid 2 mg/kg/h administered group: 9 patients; • (2) (2R)-2-propyloctanoic acid 4 mg/kg/h administered group: 8 patients; • (3) (2R)-2-propyloctanoic acid 6 mg/kg/h administered group: 8 patients; • (4) (2R)-2-propyloctanoic acid 8 mg/kg/h administered group: 8 patients; • (5) (2R)-2-propyloctanoic acid 10 mg/kg/h administered group: 8 patients; • (6) (2R)-2-propyloctanoic acid 12 mg/kg/h administered group: 8 patients; • (7) placebo administered group: 43 patients. Evaluation Items: Main Evaluation Items <Efficacy Evaluation Items> (1) Modified Rankin Scale (mRS)
Adverse Matters and Clinical Test Values
• Analysis: Therapeutic effects by continuous intravenous administration of (2R)-2-propyloctanoic acid was evaluated based on the above main evaluation items. • Results: The results are shown below. <Efficacy Evaluation Item>

CCCCCC[C@@H](CCC)C(=O)O [(2R)-2-propyloctanoic acid]
ratio occupied by a score of 2 or less (category of good improvement) on modified Rankin Scale (mRS) [1]: 87.5% | serum S-100β content during the administration period (serum S-100β): tendency of inhibiting increase of the serum S-100β content | cases of death ([2]; 0.4 mg/kg/h administration group): 3 cases | cases of death ([2]; 4 mg/kg/h administration group): 4 cases | ratio of occupying the category of improvement by RS (Rankin Scale) ([3]; FIG. 1): statistically significant differences were found | ratio of occupying the category of improvement by GOS (Glasgow Outcome Scale) ([3]; FIG. 2): statistically significant differences were found | Serious adverse matters ([4]; causal relation to the test drug was denied, placebo 12 cases): 10 cases | Frequency of the adverse matters (side effects) whose causal relation to the test drug was not denied ([4]; placebo 39.5%, no difference): 42.9% | Frequency of the adverse matters ([4]; placebo 100%, no difference): 98%
